Inhibition and IC50 data for 29 compounds are collected here from US20170008888A1 (KYORIN PHARMACEUTICAL CO., LTD., priority 2014, published 2017).

Experiment [1] has as its system human Th17 cells. The experiment is described as follows: Cytokine response by in vitro-polarized human Th17 cells stimulated with PMA/ionomycin. It is filed as cell-based. As to conditions: 10 μM compound, PMA/ionomycin 20 h. As to the method: In vitro differentiation of human Th17 cells: Human CD4+ T cells (isolated as described in protocol A) were polarized into Th17 cells as follows: Tissue culture-treated 100 mm plates (Corning, Corning, N.Y.) were coated with 10 μg/ml anti-human CD3 clone OKT3 antibody overnight at 4° C. Polarization was initiated by seeding approximately 2-3 e7 human CD4+ T cells onto the anti-CD3 plates in Polarization media consisting of: RPMI 1640 medium (Lonza, Allendale, N.J.) supplemented with 10% (v/v) charcoal-dextran treated, heat inactivated FBS (Omega Scientific, Tarzana, Calif.), 0.05 mM 2-Mercaptoethanol (Sigma-Aldrich, St. Louis, Mo.), and 1×Pen/Strep Amphotericin B (Lonza), with added recombinant human IL-23 (40 ng/ml) and anti-CD28 clone CD28.2 antibody (2 μg/ml); all recombinant human cytokines and anti-human neutralizing antibodies were purchased from eBioscience (San Diego, Calif.). Cells were incubated in the above Polarization media for 3 days at 37° C. in a humidified atmosphere at 5% CO2. After 3 days, the Polarization media was replaced with Maintenance media, consisting of RPMI 1640/FBS/2-Mercaptoethanol/Pen/Strep Amphotericin B supplemented with recombinant human IL-23 (40 ng/ml) alone, and the cells were re-plated onto regular tissue-culture-treated plates (not anti-CD3 coated). Cells were incubated in the Maintenance media for an additional 3 days at 37° C. in a humidified atmosphere at 5% CO2.
Inhibition of PMA/ionomycin-stimulated cytokine response by in vitro-differentiated human Th17 cells: Human Th17 cells, generated as described above, were seeded at 2e6 cells/ml in RPMI 1640 containing 10% (v/v) charcoal-dextran treated, heat inactivated FBS (Omega Scientific, Tarzana, Calif.), 0.05 mM 2-Mercaptoethanol (Sigma-Aldrich, St. Louis, Mo.), and 1×Pen/Strep Amphotericin B (Lonza, Allendale, N.J.). Cells were pre-treated with test compounds (10 μM) for 1 h at 37° C. in a humidified atmosphere at 5% CO2. Cells were then stimulated with 50 ng/ml phorbol 12-myristate 13-acetate (PMA) (Sigma-Aldrich, St. Louis, Mo.)+1 μg/ml ionomycin (Life Technologies, Grand Island, N.Y.) for 20 h at 37° C. in a humidified atmosphere at 5% CO2. Supernatant was collected and analyzed using Bio-Plex Pro Human Th17 Cytokine 15-Plex Panel (Bio-Rad Laboratories, Hercules, Calif.) as per manufacturer's protocols. Magnetic beads were read on the Bio-Plex MAGPIX multiplex reader instrument using the accompanying xPONENT 4.2 acquisition software (Bio-Rad Laboratories). Data were analyzed via the Bio-Plex Manager software v6.1 (Bio-Rad Laboratories). Cytokine secretion levels from Th17 cells treated with 0.1% DMSO+Stimulation were normalized to 100%.
IL-1β, IL-25, and IL-33 were below the limit of detection under conditions used. The concentrations of the observed analytes from top to bottom, as listed, are as follows: 8899, 567, 174, 99, 10380, 511, 239, 548, 81, 966, 504, and 76223 pg/ml.

Experiment [2] concerns the target T1, recombinant human ERK5 catalytic domain (Homo sapiens, UniProt Q13164).
T1 construct: Recombinant human ERK5 catalytic domain radiometric assays; purchased Reaction Biology, Corp (Malvern, Pa.), which ran the assay as a service
The experiment is described as follows: Recombinant human ERK5 radiometric (HotSpot) assay. Type of experiment: biochemical. Particulars: 10 μM ATP, 20 μM myelin basic protein substrate; read-out: rhERK5 IC50. As to the method: In this example, potency of the compounds in recombinant human ERK5 was assayed.
Recombinant human ERK5 catalytic domain radiometric assays were performed by Reaction Biology, Corp (Malvern, Pa.). The HotSpot radiometric assay is based on conventional filter-binding assays (Nature Biotechnology (2011) 29: 1039-1045). Compounds were tested at 20 μM down by ⅓ in a 10 point serial dilution series. Briefly, [γ-33P]-ATP was used as the tracer along with 10 μM cold ATP to label ERK5 in the presence of 20 μM myelin basic protein substrate.

[3] abbreviates: read-out: Percent inhibition of IFNγ (relative to DMSO control).
Where [4] appears, read: read-out: Percent inhibition of IL-4 (relative to DMSO control).
Where [5] appears, read: read-out: Percent inhibition of IL-6 (relative to DMSO control).
[6] abbreviates: read-out: Percent inhibition of IL-10 (relative to DMSO control).
[7] abbreviates: read-out: Percent inhibition of IL-17A (relative to DMSO control).
The mark [8] stands for this setting: read-out: Percent inhibition of IL-17F (relative to DMSO control).
Where [9] appears, read: read-out: Percent inhibition of IL-21 (relative to DMSO control).
The mark [10] stands for this setting: read-out: Percent inhibition of IL-22 (relative to DMSO control).
Where [11] appears, read: read-out: Percent inhibition of IL-23 (relative to DMSO control).
[12] abbreviates: read-out: Percent inhibition of IL-31 (relative to DMSO control).
The mark [13] stands for this setting: read-out: Percent inhibition of TNFα (relative to DMSO control).
[14] abbreviates: read-out: Percent inhibition of sCD40L (relative to DMSO control).

pIC50: −log10 of the molar value. Where two headings read alike, the source gives them in different places.

T1 sequence (Q13164 55-347 limits assumed): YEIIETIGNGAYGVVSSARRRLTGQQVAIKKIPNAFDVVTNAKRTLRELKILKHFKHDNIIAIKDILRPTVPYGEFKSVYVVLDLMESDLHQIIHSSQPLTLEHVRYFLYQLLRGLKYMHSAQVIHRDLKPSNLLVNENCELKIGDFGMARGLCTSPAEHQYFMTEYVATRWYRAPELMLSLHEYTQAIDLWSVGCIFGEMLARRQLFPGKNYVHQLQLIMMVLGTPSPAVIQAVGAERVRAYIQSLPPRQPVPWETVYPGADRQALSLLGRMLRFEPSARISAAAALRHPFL

As for `CCOc1cc(C(=O)N2CCC(N3CCCC3)CC2)ccc1Nc1cc2c(cn1)N(C)C(=O)c1ccccc1N2C` [Compound 46, 3-(2-Ethoxy-4-(4-(pyrrolidin-1-yl)piperidine-1-carbonyl)phenylamino)-5,11-dimethyl-5H-benzo[e]pyrido[3,4-b][1,4]diazepin-10(11H)-one], the inhibition at 10 µM was 11.9% in experiment [1] (setting [3]); -2.8% in experiment [1] (setting [4]); 90.6% in experiment [1] (setting [5]); 79.7% in experiment [1] (setting [6]); 56.6% in experiment [1] (setting [7]); 81.8% in experiment [1] (setting [8]). In addition, the inhibition at 10 µM in experiment [1] (setting [9]) was -6.1%; in experiment [1] (setting [10]), 74%; in experiment [1] (setting [11]), -58.8%; in experiment [1] (setting [12]) it was -3%; in experiment [1] (setting [13]), 22%; in experiment [1] (setting [14]) it was 36.3%.
In the case of `CCOc1cc(C(=O)NCC2CC2)ccc1Nc1cc2c(cn1)N(C)C(=O)c1ccccc1N2C` [Compound 57], the inhibition at 10 µM is 17.4% in experiment [1] (setting [3]); -11.8% in experiment [1] (setting [4]); 93.1% in experiment [1] (setting [5]); 80% in experiment [1] (setting [6]); 49.5% in experiment [1] (setting [7]); 67.4% in experiment [1] (setting [8]). Besides, the inhibition at 10 µM in experiment [1] (setting [9]) was 28.6%; in experiment [1] (setting [10]), 76.8%; in experiment [1] (setting [11]) it was 29.8%; in experiment [1] (setting [12]) it was 3%; in experiment [1] (setting [13]), 5.6%; in experiment [1] (setting [14]), 32.3%.
Turning to `CCOc1cc(C(=O)N2CCC(N3CCN(C)CC3)CC2)ccc1Nc1cc2c(cn1)N(C)C(=O)c1ccccc1N2C` [Compound 61], the inhibition at 10 µM is 7.6% in experiment [1] (setting [3]); -19.5% in experiment [1] (setting [4]); 91.4% in experiment [1] (setting [5]); 78.6% in experiment [1] (setting [6]); 37.5% in experiment [1] (setting [7]); 80.9% in experiment [1] (setting [8]). Further, the inhibition at 10 µM in experiment [1] (setting [9]) is 22.4%; in experiment [1] (setting [10]), 65.8%; in experiment [1] (setting [11]), -2.8%; in experiment [1] (setting [12]) it was -1.1%; in experiment [1] (setting [13]), -6.3%; in experiment [1] (setting [14]), 19%.
For `CCOc1cc(C(=O)N2CCN(C3CCN(C)CC3)CC2)ccc1Nc1cc2c(cn1)N(C)C(=O)c1ccccc1N2C` [Compound T8], the negative logarithm of the IC50 (pIC50) in experiment [2] is above 7.70.
Same read-out and setting: in the case of `CCOc1cc(C(=O)N2CC[C@@H](NCCF)C2)ccc1Nc1cc2c(cn1)N(C)C(=O)c1ccccc1N2C` [Compound T9] it was 7.30 to 7.70; in that of `CCOc1cc(C(=O)N2CCC(N3CC[C@@H](O)C3)CC2)ccc1Nc1cc2c(cn1)N(C)C(=O)c1ccccc1N2C` [Compound T10], 7.30 to 7.70; in that of `CCOc1cc(C(=O)N2CCC(N3CC[C@H](O)C3)CC2)ccc1Nc1cc2c(cn1)N(C)C(=O)c1ccccc1N2C` [Compound T11], 7.30 to 7.70.
On the same count and under the same terms, in the case of `CCOc1cc(C(=O)N2CCN(CCN(C)C)CC2)ccc1Nc1cc2c(cn1)N(C)C(=O)c1ccccc1N2C` [Compound T14] it was 7.30 to 7.70; in that of `CCOc1cc(C(=O)N2CCN(CCN3CCOCC3)CC2)ccc1Nc1cc2c(cn1)N(C)C(=O)c1ccccc1N2C` [Compound T15], 7.30 to 7.70.
Regarding `CCOc1cc(C(=O)N2CCN(C(C)=O)CC2)ccc1Nc1cc2c(cn1)N(C)C(=O)c1ccccc1N2C` [Compound T18], the pIC50 in experiment [2] is 7.30 to 7.70.
As to `CCOc1cc(C(=O)N2CC[C@@H](N3CCN(C)CC3)C2)ccc1Nc1cc2c(cn1)N(C)C(=O)c1ccccc1N2C` [Compound T20], the negative logarithm of the IC50 (pIC50) in experiment [2] was 7.30 to 7.70.
Still for that read-out and setting: in the case of `CCOc1cc(C(=O)N2CC[C@H](C#N)C2)ccc1Nc1cc2c(cn1)N(C)C(=O)c1ccccc1N2C` [Compound T22] it was 6.70 to 7.30; in that of `CCOc1cc(C(=O)N2CCC(N3CCCN(C)CC3)CC2)ccc1Nc1cc2c(cn1)N(C)C(=O)c1ccccc1N2C` [Compound T31], above 7.70; in that of `CN1CCN(C2CCN(C(=O)c3ccc(Nc4cc5c(cn4)N(C)C(=O)c4ccccc4N5C)c(OCCF)c3)CC2)CC1` [Compound T34], above 7.70.
Same read-out and setting: the value for `CCOc1cc(C(=O)N2CCC(NC3CCN(C)CC3)C2)ccc1Nc1cc2c(cn1)N(C)C(=O)c1ccccc1N2C` (centres unmarked) [Compound T42] was 6.70 to 7.30.
Same read-out and setting: the value for `CCOc1cc(C(=O)N2CCC(N3CCN(C)CC3)CC2)ccc1Nc1cc2c(cn1)N(C)C(C(F)(F)F)c1ccccc1N2C` (centres unmarked) [Compound T47] was below 6.70; that for `CC(C)Oc1cc(C(=O)N2CCC[C@H](O)C2)ccc1Nc1cc2c(cn1)N(C)C(=O)c1ccccc1N2C` [Compound T48] was 6.70 to 7.30; that for `CC(C)Oc1cc(C(=O)N2CCN(C3CCN(C)CC3)CC2)ccc1Nc1cc2c(cn1)N(C)C(=O)c1ccccc1N2C` [Compound T49] was 6.70 to 7.30.
In the case of `CC(C)Oc1cc(C(=O)N2CC[C@@H](NCCF)C2)ccc1Nc1cc2c(cn1)N(C)C(=O)c1ccccc1N2C` [Compound T50], the pIC50 in experiment [2] is 6.70 to 7.30.
Still for that read-out and setting: the value for `CCOc1cc(C(=O)N2CCC(NCCF)C2)ccc1Nc1cc2c(cn1)N(C)C(C(F)(F)F)c1ccccc1N2C` (centres unmarked) [Compound T54] was below 6.70; that for `CCOc1cc(C(=O)N2CCN(c3cccnc3)CC2)ccc1Nc1cc2c(cn1)N(C)C(=O)c1occc1N2C` [Compound T56] was above 7.70; that for `CCOc1cc(C(=O)N[C@H]2CC[C@H](O)CC2)ccc1Nc1cc2c(cn1)N(C)C(=O)c1ccccc1N2C` [Compound T62] was below 6.70.
The same measure, in the same setting: the value for `CCOc1cc(C(=O)N[C@H]2CC[C@@H](O)CC2)ccc1Nc1cc2c(cn1)N(C)C(=O)c1ccccc1N2C` [Compound T63] was below 6.70; that for `CN1C(=O)c2c(F)cccc2Oc2cc(N[C@H]3CC[C@H](O)CC3)ncc21` [Compound T92] was 6.70 to 7.30.
Same read-out and setting: the value for `COc1cccc2c1Oc1cc(N[C@H]3CC[C@H](O)CC3)ncc1N(C)C2=O` [Compound T95] was below 6.70.
As for `CN1C(=O)c2c(F)ccc(F)c2Oc2cc(N[C@H]3CC[C@H](O)CC3)ncc21` [Compound T97], the pIC50 in experiment [2] is below 6.70.
Still for that read-out and setting: the value for `CCOc1cc(C(=O)N2CCN(C3CCN(C)CC3)CC2)ccc1Nc1cc2c(cn1)N(C)C(=O)c1ccccc1O2` [Compound T98] was 7.30 to 7.70; that for `CCOc1cc(C(=O)N2CCN(C3CCN(C)CC3)CC2)ccc1Nc1cc2c(cn1)N(C)C(=O)c1c(F)cccc1O2` [Compound T102] was 7.30 to 7.70.
The same measure, in the same setting: in the case of `C[C@@H]1C[C@H](Nc2cc3c(cn2)N(C)C(=O)c2ccccc2N3C)CC[C@H]1O` [Compound T115] it was below 6.70.
